Patent US20230103631A1, “PEPTIDES AS SELECTIVE GIP RECEPTOR AGONISTS” (Sanofi, priority 2020, published 2023)
*1 amine or outer side, *2 acyl side, *3 side chain or, on linkers, in order; H or OH if unused. Where a SMILES comes first, the peptide text is derived from it. Side-chain parts run from the residue outwards. [ ]: non-standard residue; d: D form. The star is where a group is joined. C18 diacid = O=C(O)CCCCCCCCCCCCCCCCC(=O)*; γGlu = O=C(O)[C@H](CCC(=O)[*:2])N[*:1]; AEEA = NCCOCCOCC(=O)O; Aib = CC(C)(N)C(=O)O

Columns and labels:
[1] = Chemical stability assessment (relative purity loss by UHPLC-UV); assay type: physicochemical
Experimental: Purity of a peptide batch was determined through UHPLC/MS prior to chemical stability measurement. The target concentration was […] pure compound. Solutions from solid samples were prepared in the following buffer systems with a concentration of ˜300 μM compound based on the previously determined % purity:
Chemical stability buffer system A) 20 mM phosphate buffer pH 7.4,
Chemical stability buffer system B) 8 mM phosphate buffer pH 7.4, 14 mg/ml propylene glycol, 5.5 mg/ml phenol
Chemical stability buffer system C) 100 mM phosphate buffer pH 7.4, 2.7 mg/ml m-cresol
Prepared solutions were filtered through […] pore size and filled into sterilized glass containers under laminar flow conditions.
Glass containers were stored for 28 days at 5 and 40° C. After this time, the samples were centrifuged for 15 min at 2500 RCF. Then 1.5 μl of the undiluted supernatant were analysed with UHPLC-UV.
The chemical stability was rated through the relative loss of purity calculated by the equation:
[(purity after 28 days at 5° C.)−(purity after 28 days at 40° C.)]/(purity after 28 days at 5° C.)]*100%
The purity is calculated as
[(peak area peptide)/(total peak area)]*100%
The analytical methods used were Analytical UHPLC Method B or C.
Peptide samples were prepared in Chemical stability buffer system A or B and stability was assessed as described in Methods.

[2] = ThT assay for the assessment of physical stability; assay type: physicochemical; conditions: ThT buffer system A: 100 mM phosphate buffer pH 7.4; 3 mg/ml, 37° C.
Source text: Low physical stability of a peptide solution may lead to amyloid fibril formation, which is observed as well-ordered, thread-like macromolecular structures in the sample, which eventually may lead to gel formation. Thioflavin T (ThT) is widely used to visualize and quantify the presence of misfolded protein aggregates [Biancalana et al., Biochim. Biophys. Acta 2010, 1804(7), 1405]. […] Enzymol. 1999, 309, 274]. The time course for fibril formation often follows the characteristic shape of a sigmoidal curve and can be separated into three regions: a lag phase, a fast growth phase, and a plateau phase.
The typical fibril formation process starts with the lag phase in which the amount of partially folded peptide turned into fibrils is not significant enough to be detected. The lag-time corresponds to the time the critical mass of the nucleus is built. Afterwards, a drastic elongation phase follows, and fibril concentration increases rapidly.
Investigations were carried out to determine fibrillation tendencies under stress conditions by shaking at 37° C. within Fluoroskan Ascent FL or Fluoroskan Ascent.
For the tests in Fluoroskan Ascent (FL), 200 μl sample were placed into a 96-well mictrotiter plate PS, flat bottom, Greiner Fluotrac No. 655076. Plates were sealed with Scotch Tape (Qiagen). Samples were stressed by continuous cycles of 10 sec shaking at 960 rpm and 50 sec rest period at 37° C. The kinetic was monitored by measuring fluorescence intensity every 20 min.
Peptides were diluted in a buffer system to a final concentration of 3 mg/ml. 20 μl of a 10.1 mM ThT solution in H2O were added to 2 ml of peptide solution to receive a final concentration of 100 μM ThT. For each sample eight replicates were tested.
ThT buffer system A) 100 mM phosphate buffer pH 7.4
ThT buffer system B) 100 mM phosphate buffer pH 7.4, 2.7 mg/ml m-cresol
Lag time in hours (h) in Thioflavin T (ThT) assay of peptide samples was determined in ThT buffer system A as described in Methods.

[3] = Pharmacokinetic evaluation in rats; assay type: in vivo; conditions: male, SD, rat, plasma
Experimental: Compounds were administered in a suitable buffer system, e.g. PBS buffer solution at pH7.4 or DPBS solution at concentrations of 0.05, 0.1, 0.5 or 1 mg/ml depending on dose, species and administration volume.
Male SD rats were dosed 0.25 mg/kg, 0.5 mg/kg or 1 mg/kg intravenously (i.v.) or subcutaneously (s.c.). Blood samples were collected after 0.08, 0.25, 0.5, 1, 2, 4, 8, 24, 32, and 48 h post i.v. application and 0.25, 0.5, 1, 2, 4, 8, 24, 32, and 48 h post s.c. application, respectively. Plasma samples were analyzed after protein precipitation via liquid chromatography mass spectrometry (LC/MS). PK parameters and half-life were calculated using Phoenix-WinNonlin 8.1 using a non-compartmental model and linear trapezoidal interpolation calculation.
Pharmacokinetic profiles were determined as described in Methods.

[4] = target: human GLP-1 receptor (hGLP-1R) (Homo sapiens, UniProt P43220); assay: cAMP HTRF assay, HEK-293 cell line over-expressing human GLP-1 receptor; assay type: cell-based; conditions: HEK-293, cAMP, 0% HSA
human GLP-1 receptor (hGLP-1R), sequence (P43220 24-463): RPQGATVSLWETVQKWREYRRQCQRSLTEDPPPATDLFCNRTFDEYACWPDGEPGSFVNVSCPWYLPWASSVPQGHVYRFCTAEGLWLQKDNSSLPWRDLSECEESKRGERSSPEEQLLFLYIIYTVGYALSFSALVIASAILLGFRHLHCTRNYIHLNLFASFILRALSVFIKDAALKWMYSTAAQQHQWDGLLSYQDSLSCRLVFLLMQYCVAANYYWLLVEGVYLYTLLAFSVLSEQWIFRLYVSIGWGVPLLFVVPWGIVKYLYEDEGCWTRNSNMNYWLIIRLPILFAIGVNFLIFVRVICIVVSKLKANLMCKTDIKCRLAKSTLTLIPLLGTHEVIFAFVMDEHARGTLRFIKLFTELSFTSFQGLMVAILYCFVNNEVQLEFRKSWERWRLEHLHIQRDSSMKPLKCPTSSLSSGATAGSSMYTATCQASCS
Method in brief: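 Thawed HEK-293 cells over-expressing human GLP-1R (5000 cells/well) in HBSS/20 mM HEPES buffer, with 0.1% HSA where stated, incubated with compound for 30 min at room temperature. Generated cAMP quantified by HTRF.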

SMILES: CC[C@H](C)[C@H](NC(=O)[C@H](Cc1ccccc1)NC(=O)[C@H](CCC(=O)O)NC(=O)[C@H](CCC(=O)O)NC(=O)[C@H](CCC(N)=O)NC(=O)[C@H](Cc1c[nH]cn1)NC(=O)[C@@H](NC(=O)[C@H](CCCNC(=N)N)NC(=O)[C@H](CC(=O)O)NC(=O)[C@H](CCCCNC(=O)COCCOCCNC(=O)COCCOCCNC(=O)CC[C@H](NC(=O)CCCCCCCCCCCCCCCCC(=O)O)C(=O)O)NC(=O)C(C)(C)NC(=O)[C@@H](NC(=O)[C@H](CO)NC(=O)[C@H](CC(C)C)NC(=O)[C@H](CC(=O)O)NC(=O)[C@H](CO)NC(=O)[C@@H](NC(=O)[C@H](Cc1ccccc1)NC(=O)[C@@H](NC(=O)CNC(=O)[C@H](CCC(=O)O)NC(=O)C(C)(C)NC(=O)[C@@H](N)Cc1ccc(O)cc1)[C@@H](C)O)[C@@H](C)CC)[C@@H](C)CC)[C@@H](C)CC)C(=O)N[C@@H](CCC(=O)O)C(=O)N[C@@H](Cc1c[nH]c2ccccc12)C(=O)N[C@@H](CC(C)C)C(=O)N[C@@H](CC(C)C)C(=O)N[C@@H](C)C(=O)N[C@@H](CCC(N)=O)C(=O)NCC(=O)N1CCC[C@H]1C(=O)N[C@@H](CO)C(=O)N[C@@H](CO)C(=O)NCC(=O)N[C@@H](C)C(=O)N1CCC[C@H]1C(=O)N1CCC[C@H]1C(=O)N1CCC[C@H]1C(=O)N[C@@H](CO)C(N)=O [SEQ ID NO: 9, H2N-Y-Aib-E-G-T-F-I-S-D-I-S-I-Aib-K[{AEEA}2-gGlu-C18OH]-DRIHQEEFIEWILAQGPSSGAPPPS-NH2] (H-Y[Aib]EGTFISDLSI[Aib]K([AEEA-AEEA-γGlu-C18 diacid])DRIHQEEFIEWLLAQGPSSGAPPPS-NH2)
- Relative purity loss over 28 days at 40° C. ([1]; Chemical stability buffer system A: 20 mM phosphate buffer pH 7.4): 6.9%
- Relative purity loss over 28 days at 40° C. ([1]; Chemical stability buffer system B: 8 mM phosphate buffer pH 7.4, 14 mg/ml propylene glycol, 5.5 mg/ml phenol): 8.2%
- Increase in FI [2]: no
- Lag time before increase [2]: >45 h
- AUC(0-t) ([3]; iv, 0.25 mg/kg i.v.): 54500 ng·h/mL
- Cmax ([3]; iv, 0.25 mg/kg i.v.): 5600 ng/mL
- half-life ([3]; iv, 0.25 mg/kg i.v.): 14.8 h
- clearance ([3]; iv, 0.25 mg/kg i.v., read-out: CI (converted)): 4.19 mL/h/kg
- AUC(0-t) ([3]; sc, 0.5 mg/kg s.c.): 72900 ng·h/mL
- Cmax ([3]; sc, 0.5 mg/kg s.c.): 2490 ng/mL
- bioavailability ([3]; sc, 0.5 mg/kg s.c.): 73%
- half-life ([3]; sc, 0.5 mg/kg s.c.): 16.9 h
- EC50 [4]: > 10 nM
